Values after ≈ are worked out from the molar mass of the structure shown. Like-named read-outs stand apart in the source and are kept apart here.
Tests used:
Streptococcus pneumoniae = experiment: MIC, 25 ocular isolates, broth microdilution (Example 8); type: cell-based
Procedure: (§1) Mueller-Hinton Broth supplemented with 2% lysed horse blood in tubes was inoculated with 25 ocular isolates of Streptococcus pneumoniae, Streptococcus viridans group, and Moraxella species (including Moraxella catarrhalis) plus two controls (Staphylococcus aureus and E. coli) and incubated at 37° C. overnight. Additionally, Mueller-Hinton Broth in tubes was inoculated with two controls (Staphylococcus aureus and E. coli) and incubated at 37° C. overnight on a shaker set at 250 rpm.
(§2) On the day of testing, a 640 μg/ml (1280 μg/ml for Serratia marcescens and Pseudomonas aeruginosa) concentration was prepared from a 1% stock solution in 0.01% acetic acid, 0.2% BSA in polypropylene tubes.
(§3) Serial doubling dilutions in 0.01% acetic acid, 0.2% BSA in 96 well polypropylene plates, which are used as reservoirs for the inoculation of the test plates, were carried out to obtain serial dilutions of test agents at 10 times the required test concentrations: 640, 320, 160, 80, 40, 20, 10, 5, 2.5, 1.25, and 0.625 μg/ml (1280, 640, 320, 160, 80, 40, 20, 10, 5, 2.5, and 1.25 μg/ml for Serratia marcescens and Pseudomonas aeruginosa).
(§4) Ten μl of diluted 10×test agents was added to each well of one row of the 96 well polypropylene plates from column 2 to column 12 (column 1 is a control for bacteria alone, with no peptide). Test agent concentrations in columns 2-12 were as follows: 64, 32, 16, 8, 4, 2, 1, 0.5, 0.25, 0.125, and 0.0625 μg/ml (128, 64, 32, 16, 8, 4, 2, 1, 0.5, 0.25, and 0.125 μg/ml for Serratia marcescens and Pseudomonas aeruginosa). The same peptide was in each of the 8 rows. One plate contained dilutions of one test agent and 8 bacterial isolates.
(§5) On the day of testing, the overnight bacterial broth cultures of Streptococcus pneumoniae, Streptococcus viridans and Moraxella species (including Moraxella catarrhalis) plus two controls (Staphylococcus aureus and E. coli) were diluted in 5 ml of trypticase soy broth to yield turbidity equal to a 0.5 McFarland standard. The final inoculum for MIC testing for Streptococcus pneumoniae, Streptococcus viridans and Moraxella species (including Moraxella catarrhalis) was achieved by placing 0.1 ml of the turbidity adjusted sample to 5 ml of Mueller-Hinton broth containing 2% lysed horse red blood cells.
(§6) Ninety μl of the bacterial suspensions was dispensed in each well from column 1 to column 12. Each bacterial isolate was placed in one row of a 96 well polypropylene plate containing the test agents. The plates were placed on shaker at 15 minutes at room temperature, and then incubated at 37° C. overnight. MICs were determined visually as the lowest concentration of drug that inhibits visible bacterial growth.

[1] = test system: Streptococcus viridans group; experiment: as above; type: cell-based
Procedure: as §1, §2, §3, §4, §5, §6

N=C(N)NCCCCC(=O)Nc1cc(C(F)(F)F)cc(NC(=O)c2cc(C(=O)Nc3cc(C(F)(F)F)cc(NC(=O)CCCCNC(=N)N)c3O[C@@H]3CCNC3)ncn2)c1O[C@@H]1CCNC1 [Oligomer 4]
MIC (Streptococcus pneumoniae; Streptococcus pneumoniae, isolate 17—B1287, read-out: MIC): 1 µg/mL (≈ 1.07 µM) | MIC (Streptococcus pneumoniae; Streptococcus pneumoniae, isolate 18—B1272, read-out: MIC): 0.5 µg/mL (≈ 0.534 µM) | MIC (Streptococcus pneumoniae; Streptococcus pneumoniae, isolate 19—B1264, read-out: MIC): 0.5 µg/mL (≈ 0.534 µM) | MIC (Streptococcus pneumoniae; Streptococcus pneumoniae, isolate 20—B1252, read-out: MIC): 1 µg/mL (≈ 1.07 µM) | MIC (Streptococcus pneumoniae; Streptococcus pneumoniae, isolate 21—B1245, read-out: MIC): 0.5 µg/mL (≈ 0.534 µM) | MIC (Streptococcus pneumoniae; Streptococcus pneumoniae, isolate 22—B1211, read-out: MIC): 1 µg/mL (≈ 1.07 µM) | MIC (Streptococcus pneumoniae; Streptococcus pneumoniae, isolate 23—B1213, read-out: MIC): 1 µg/mL (≈ 1.07 µM) | MIC (Streptococcus pneumoniae; Streptococcus pneumoniae, isolate 24—B1208, read-out: MIC): 0.5 µg/mL (≈ 0.534 µM) | MIC (Streptococcus pneumoniae; Streptococcus pneumoniae, isolate 25—B1214, read-out: MIC): 1 µg/mL (≈ 1.07 µM) | MIC (Streptococcus pneumoniae; Streptococcus pneumoniae, n=25 per group, read-out: Median MIC): 1 µg/mL (≈ 1.07 µM) | MIC50 (Streptococcus pneumoniae; Streptococcus pneumoniae, 25 isolates, Summary of Results, read-out: MIC50): 1 µg/mL (≈ 1.07 µM) | MIC90 (Streptococcus pneumoniae; Streptococcus pneumoniae, 25 isolates, Summary of Results, read-out: MIC90): 2 µg/mL (≈ 2.13 µM) | MIC (Streptococcus pneumoniae; Streptococcus pneumoniae, 25 isolates, Summary of Results, read-out: Median MIC): 1 µg/mL (≈ 1.07 µM) | MIC50 (Streptococcus pneumoniae; n=25 per group): 1 µg/mL (≈ 1.07 µM) | MIC90 (Streptococcus pneumoniae; n=25 per group): 2 µg/mL (≈ 2.13 µM) | Range of MICs (Streptococcus pneumoniae; n=25 per group): 0.5 to 128 µg/mL | MIC50 ([1]; 25 isolates, Row 13): 4 µg/mL (≈ 4.27 µM) | MIC90 ([1]; 25 isolates, Row 22, >64 was Replaced with 128): 8 µg/mL (≈ 8.54 µM) | Range of MICs ([1]; 25 isolates, Summary of Results, >64 was Replaced with 128): 1 to 32 µg/mL | MIC ([1]; Streptococcus viridans, 25 ocular isolates, Mueller-Hinton broth with 2% lysed horse red blood cells, read-out: Median MIC): 4 µg/mL (≈ 4.27 µM) | MIC ([1]; Streptococcus viridans, isolate 1—K1684, read-out: MIC): 2 µg/mL (≈ 2.13 µM) | MIC ([1]; Streptococcus viridans, isolate 2—K1680, read-out: MIC): 4 µg/mL (≈ 4.27 µM) | MIC ([1]; Streptococcus viridans, isolate 3—E546, read-out: MIC): 1 µg/mL (≈ 1.07 µM) | MIC ([1]; Streptococcus viridans, isolate 4—E272, read-out: MIC): 2 µg/mL (≈ 2.13 µM) | MIC ([1]; Streptococcus viridans, isolate 5—E506, read-out: MIC): 16 µg/mL (≈ 17.1 µM) | MIC ([1]; Streptococcus viridans, isolate 6—E496, read-out: MIC): 1 µg/mL (≈ 1.07 µM) | MIC ([1]; Streptococcus viridans, isolate 7—E456, read-out: MIC): 4 µg/mL (≈ 4.27 µM) | MIC ([1]; Streptococcus viridans, isolate 8—E432, read-out: MIC): 4 µg/mL (≈ 4.27 µM) | MIC ([1]; Streptococcus viridans, isolate 9—E423, read-out: MIC): 4 µg/mL (≈ 4.27 µM) | MIC ([1]; Streptococcus viridans, isolate 10—E418, read-out: MIC): 8 µg/mL (≈ 8.54 µM) | MIC ([1]; Streptococcus viridans, isolate 11—E412, read-out: MIC): 2 µg/mL (≈ 2.13 µM) | MIC ([1]; Streptococcus viridans, isolate 12—E409, read-out: MIC): 8 µg/mL (≈ 8.54 µM) | MIC ([1]; Streptococcus viridans, isolate 13—E405, read-out: MIC): 4 µg/mL (≈ 4.27 µM) | MIC ([1]; Streptococcus viridans, isolate 14—E404, read-out: MIC): 32 µg/mL (≈ 34.2 µM) | MIC ([1]; Streptococcus viridans, isolate 15—E396, read-out: MIC): 16 µg/mL (≈ 17.1 µM) | MIC ([1]; Streptococcus viridans, isolate 16—E262, read-out: MIC): 1 µg/mL (≈ 1.07 µM) | MIC ([1]; Streptococcus viridans, isolate 17—E362, read-out: MIC): 4 µg/mL (≈ 4.27 µM) | MIC ([1]; Streptococcus viridans, isolate 18—E359, read-out: MIC): 4 µg/mL (≈ 4.27 µM) | MIC ([1]; Streptococcus viridans, isolate 19—E348, read-out: MIC): 8 µg/mL (≈ 8.54 µM) | MIC ([1]; Streptococcus viridans, isolate 20—E344, read-out: MIC): 4 µg/mL (≈ 4.27 µM) | MIC ([1]; Streptococcus viridans, isolate 21—E308, read-out: MIC): 4 µg/mL (≈ 4.27 µM) | MIC ([1]; Streptococcus viridans, isolate 22—E294, read-out: MIC): 4 µg/mL (≈ 4.27 µM) | MIC ([1]; Streptococcus viridans, isolate 23—E292, read-out: MIC): 4 µg/mL (≈ 4.27 µM) | MIC ([1]; Streptococcus viridans, isolate 24—E285, read-out: MIC): 4 µg/mL (≈ 4.27 µM) | MIC ([1]; Streptococcus viridans, isolate 25—E265, read-out: MIC): 1 µg/mL (≈ 1.07 µM) | MIC ([1]; Streptococcus viridans, n=25 per group, read-out: Median MIC): 4 µg/mL (≈ 4.27 µM) | MIC90 ([1]; Streptococcus viridans, 25 isolates, Summary of Results, >64 was Replaced with 128, read-out: MIC90): 8 µg/mL (≈ 8.54 µM) | MIC50 ([1]; Streptococcus viridans, 25 isolates, Summary of Results, read-out: MIC50): 4 µg/mL (≈ 4.27 µM) | MIC ([1]; Streptococcus viridans, 25 isolates, Summary of Results, read-out: Median MIC): 4 µg/mL (≈ 4.27 µM) | MIC50 ([1]; n=25 per group): 4 µg/mL (≈ 4.27 µM) | MIC90 ([1]; n=25 per group): 8 µg/mL (≈ 8.54 µM) | Range of MICs ([1]; n=25 per group): 1 to 32 µg/mL

— patent US20130065818A1, “Arylamide Compounds And Compositions And Uses Thereof” (POLYMEDIX, priority 2006, published 2013)
